The source of these data is patent US8772290B2, “Alpha-arylmethoxyacrylate derivative, preparation method thereof, and pharmaceutical composition containing same” (Oscotech Inc., priority 2010, dated 2014).

pIC50: −log10 of the molar value.

For this experiment, the system named is HIF. Briefly: Assay for inhibitory activity against HIF activity (HIF1 luciferase reporter cell line). To be noted: Homo sapiens; HEK293 HIF1 reporter cell line, 1% oxygen, 6 hours, luciferase activity 50% inhibited. It is filed as cell-based, human. From the text: In order to assay the compounds of the present invention for inhibitory activity against HIF activity, the HIF1 reporter plasmid (Panomics) that is designed to control the expression of luciferase by HIF was employed. The HIF1 reporter plasmid and the pTK-Hyg plasmid (Clontech), which carries a hygromycin resistant gene, were co-transfected into the HEK293 cell line (the Korean Cell Line Bank, KCLB No. 21573), derived from the human kidney, with the aid of Effectene transfection reagent (Qiagen). Then, the cells were cultured for 3 weeks on a medium containing 200 μg/mL hygromycin to select transformants resistant to hygromycin. The cell colonies derived from single cells were transferred to 24-well plates to secure a reporter cell line. The cells were seeded at a density of 4×10^4 cells/well into 96-well plates containing DMEM and incubated for 24 hours before treatment with the compounds of the present invention at a concentration of 25 μM, 5 μM, 1 μM, 200 nM, 40 nM, 8 nM, 1.6 nM, 320 pM, 64 pM, 12.8 pM, 2.56 pM, 512 fM, 102 fM, 20.4 fM, or an amount between any two concentrations above as shown in FIGS. 1A to 1C. Under 1% oxygen condition, the cells were incubated for 6 hours and then, the medium was removed. The cells were lyzed by incubation for 5 min with 100 μL of the mixture of Bright-Glo™ luciferase assay buffer and Bright-Glo™ luciferase assay substrate (Promega). The whole cell lysate was transferred to 96-well, white plates (PerkinElmer) and measured for luminescence using Victor™ 3 (PerkinElmer). From the luminescence measurements, IC50 (a concentration of the compound at which luciferase activity was 50% inhibited) was calculated using the GraphPad Prism™ 4 program. The results are summarized in Table 2 and illustrated in FIGS. 1A to 1C.
On the technique in general: In a reporter assay the amount or activity of a reporter protein is the signal.

`CO/C=C(/C(=O)OC)c1ccccc1COc1ccc(/C(C)=N/OCc2ccccc2)cc1OC` [Compound 36, (E)-methyl 2-(2-((4-((E)-1-(benzyloxyimino)ethyl)-2-methoxyphenoxy)-methyl)phenyl)-3-methoxyacrylate] had a pIC50 of 6.06.
Under `CO/C=C(/C(=O)OC)c1ccccc1COc1cc(/C(C)=N/O)ccc1OC` [Compound 37, (E)-methyl 2-(2-((5-((E)-1-(hydroxyimino)ethyl)-2-methoxyphenoxy)-methyl)phenyl)-3-methoxyacrylate] stands 5.14; under `CO/C=C(/C(=O)OC)c1ccccc1COc1cc(/C(C)=N/OCc2ccccc2)ccc1OC` [Compound 38, (E)-methyl 2-(2-((5-((E)-1-(benzyloxyimino)ethyl)-2-methoxyphenoxy)-methyl)phenyl)-3-methoxyacrylate], 5.78.
The figure for `CO/C=C(/C(=O)OC)c1ccccc1COc1cc(/C=N/OCc2ccccc2)ccc1OC` [Compound 39, (E)-methyl 2-(2-((5-((E)-(benzyloxyimino)methyl)-2-methoxyphenoxy)-methyl)phenyl)-3-methoxyacrylate] is 5.85.
Under `CCCOc1cc(C)cc(OCc2ccccc2/C(=C\OC)C(=O)OC)c1C` [Compound 40, (E)-methyl 2-(2-((2,5-dimethyl-3-propoxyphenoxy)methyl)phenyl)-3-methoxyacrylate] stands 4.90.
The compound `CO/C=C(/C(=O)OC)c1ccccc1COc1cc(C)cc(OCc2ccccc2)c1C` [Compound 41, (E)-methyl 2-(2-((3-(benzyloxy)-2,5-dimethylphenoxy)methyl)phenyl)-3-methoxyacrylate] gave a pIC50 of 5.21.
For `CCCO/N=C(\C)c1ccc(OC)c(OCc2ccccc2/C(=C\OC)C(=O)OC)c1` [Compound 42, (E)-methyl 2-(2-((2-methoxy-5-((E)-1-(propoxyimino)ethyl)phenoxy)-methyl)phenyl)-3-methoxyacrylate], the pIC50 is 5.29.
`CCCO/N=C/c1ccc(OC)c(OCc2ccccc2/C(=C\OC)C(=O)OC)c1` [Compound 43, (E)-methyl 2-(2-((2-methoxy-5-((E)-(propoxyimino)methyl)phenoxy)-methyl)phenyl)-3-methoxyacrylate] had a pIC50 of 6.02.
The figure for `CO/C=C(/C(=O)OC)c1ccccc1COc1cc(/C(C)=N/OCCc2ccccc2)ccc1OC` [Compound 44, (E)-methyl 2-(2-((2-methoxy-5-((E)-1-(phenylethoxyimino)ethyl)-phenoxy)methyl)phenyl)-3-methoxyacrylate] is 5.66; for `CO/C=C(/C(=O)OC)c1ccccc1COc1cc(/C=N/OCCc2ccccc2)ccc1OC` [Compound 45, (E)-methyl 2-(2-((2-methoxy-5-((E)-1-(phenylethoxyimino)methyl)-phenoxy)methyl)phenyl)-3-methoxyacrylate] it is 6.96; for `CO/C=C(/C(=O)OC)c1ccccc1COc1cc(/C=N/Oc2ccccc2)ccc1OC` [Compound 46, (E)-methyl 2-(2-((2-methoxy-5-((E)-1-(phenoxyimino)methyl)phenoxy)-methyl)phenyl)-3-methoxyacrylate] it is 6.77.
In turn, `CO/C=C(/C(=O)OC)c1ccccc1COc1cccc(/C=N/Oc2ccccc2)c1` [Compound 47, (E)-methyl 2-(2-((3-((E)-1-(phenoxyimino)methyl)phenoxy)methyl)-phenyl)-3-methoxyacrylate] had a pIC50 of 7.52.
Under `CO/C=C(/C(=O)OC)c1ccccc1COc1cc(/C(C)=N/Nc2ccccc2)ccc1OC` [Compound 48, (E)-methyl 2-(2-((2-methoxy-5-((E)-1-(phenylhydrazono)ethyl)phenoxy)-methyl)phenyl)-3-methoxyacrylate] stands 5.07; under `CCCO/N=C/c1cc(C)c(OCc2ccccc2/C(=C\OC)C(=O)OC)cc1C` [Compound 49, (E)-methyl 2-(2-((2,5-dimethyl-4-((E)-(propoxyimino)methyl)phenoxy)-methyl)phenyl)-3-methoxyacrylate], 8.00.
Under `CO/C=C(/C(=O)OC)c1ccccc1COc1cc(C)c(/C=N/OCc2ccccc2)cc1C` [Compound 50, (E)-methyl 2-(2-((4-((E)-(benzyloxyimino)methyl)-2,5-dimethylphenoxy)-methyl)phenyl)-3-methoxyacrylate] stands 7.15; under `CO/C=C(/C(=O)OC)c1ccccc1COc1cc(C)c(/C=N/OCCOc2ccccc2)cc1C` [Compound 51, (E)-methyl 2-(2-((2,5-dimethyl-4-((E)-(2-phenoxyethoxyimino)methyl)-phenoxy)methyl)phenyl)-3-methoxyacrylate], 7.70.
The figure for `CO/C=C(/C(=O)OC)c1ccccc1COc1cc(C)c(/C=N/OCC2CO2)cc1C` (stereo not shown) [Compound 52, (E)-methyl 2-(2-((2,5-dimethyl-4-((E)-(oxirane-2-ylmethoxyimino)-methyl)phenoxy)methyl)phenyl)-3-methoxyacrylate] is 5.65.
In the case of `CO/C=C(/C(=O)OC)c1ccccc1COc1cc(C)c(/C=N/OCCN2CCCC2)cc1C` [Compound 53, (E)-methyl 2-(2-((2,5-dimethyl-4-((E)-(2-(pyrrolidin-1-yl)ethoxyimino)-methyl)phenoxy)methyl)phenyl)-3-methoxyacrylate], the pIC50 was 5.18.
Under `CO/C=C(/C(=O)OC)c1ccccc1COc1cc(C)c(/C=N/OCCN2CCCCC2)cc1C` [Compound 54, (E)-methyl 2-(2-((2,5-dimethyl-4-((E)-(2-(piperidin-1-yl)ethoxyimino)-methyl)phenoxy)methyl)phenyl)-3-methoxyacrylate] stands 5.18; under `CO/C=C(/C(=O)OC)c1ccccc1COc1cc(C)cc(O)c1C` [Compound 55, (E)-methyl 2-(2-((3-hydroxy-2,5-dimethylphenoxy)methyl)phenyl)-3-methoxyacrylate], 5.43; under `CO/C=C(/C(=O)OC)c1ccccc1COc1cc(C)cc(OCCOc2ccccc2)c1C` [Compound 56, (E)-methyl 2-(2-((2,5-dimethyl-3-(2-phenoxyethoxy)phenoxy)methyl)-phenyl)-3-methoxyacrylate], 5.67.
Turning to `CO/C=C(/C(=O)OC)c1ccccc1COc1cc(/C(C)=N/OCc2ccc(C)cc2)ccc1OC` [Compound 57, (E)-methyl 2-(2-((2-methoxy-5-((E)-1-(4-methylbenzyloxyimino)ethyl)-phenoxy)methyl)phenyl)-3-methoxyacrylate], the pIC50 was 5.40.
Under `CO/C=C(/C(=O)OC)c1ccccc1COc1cc(/C=N/OCc2ccc(C)cc2)ccc1OC` [Compound 58, (E)-methyl 2-(2-((2-methoxy-5-((E)-1-(4-methylbenzyloxyimino)methyl)-phenoxy)methyl)phenyl)-3-methoxyacrylate] stands 5.90; under `CO/C=C(/C(=O)OC)c1ccccc1COc1ccc(/C=N/OCCc2ccccc2)cc1C` [Compound 59, (E)-methyl 2-(2-((2-methyl-4-((E)-(phenylethoxyimino)methyl)phenoxy)-methyl)phenyl)-3-methoxyacrylate], 6.58.
The compound `CO/C=C(/C(=O)OC)c1ccccc1COc1ccc(/C=N/OCc2ccc(C)cc2)cc1C` [Compound 60, (E)-methyl 2-(2-((2-methyl-4-((E)-(4-methylbenzyloxyimino)methyl)-phenoxy)methyl)phenyl)-3-methoxyacrylate] had a pIC50 of 6.96.

The pIC50 is the negative decadic logarithm of the IC50, by convention in mol/L. A higher pIC50 goes with a low IC50.
